In patent US9290467B2, “Cyclic amides” (Hoffmann-La Roche Inc., priority 2012, dated 2016):
Read-outs that look alike come from different tables or passages of the source.

Tests used:
[1] = from C=CCOc1ccc(C[C@H](NC(=O)c2ccccc2OCC=C)C(=O)NC2(C#N)CC2)cc1; rcm bond; 16-membered ring; Grubbs II (0.3 eq); DCM; 2.88 mM; 50.0 °C
Cathepsin L = Cathepsin L (Homo sapiens (Human), UniProt P07711); experiment: Cathepsin enzyme inhibition assay (fluorogenic peptide substrate Z-Val-Val-Arg-AMC); format: biochemical; conditions: enzyme 1 nM, substrate 20 μM, pH 6.5
Procedure: Enzyme activity is measured by observing the increase in fluorescence intensity caused by cleavage of a peptide substrate containing a fluorophore whose emission is quenched in the intact peptide.
Assay buffer: 100 mM potassium phosphate pH 6.5, EDTA-Na 5 mM, Triton X-100 0.001%, DDT 5 mM.
Enzymes (all at 1 nM): human and mouse Cathepsin S, Cat K, Cat B, Cat L
Substrate (20 μM): Z-Val-Val-Arg-AMC, except for Cat K which uses Z-Leu-Arg-AMC (both from Bachem).
AMC=7-Amino-4-Methyl-Coumarin.
Excitation 360 nm, Emission 465 nm.
Enzyme is added to the substance dilutions in 96-well microtitre plates and the reaction is started with substrate. […] IC50 are calculated by standard methods. The results are expressed in μM in the following table.

[2] = rcm bond, 16-membered ring, DCM, 50.0 °C

Cathepsin L, sequence (P07711 114-333): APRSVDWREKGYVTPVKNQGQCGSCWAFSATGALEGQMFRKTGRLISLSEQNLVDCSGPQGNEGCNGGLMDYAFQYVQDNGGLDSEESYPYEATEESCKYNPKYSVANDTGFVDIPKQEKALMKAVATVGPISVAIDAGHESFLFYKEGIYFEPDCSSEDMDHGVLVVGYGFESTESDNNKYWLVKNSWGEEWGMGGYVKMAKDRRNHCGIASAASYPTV

In the case of `N#CC1(NC(=O)[C@@H]2Cc3ccc(cc3)OC/C=C/COc3ccccc3C(=O)N2)CC1` [Example 1, (E)-(S)-5-Oxo-12,17-dioxa-4-aza-tricyclo[16.2.2.0*6,11*]docosa-1(21),6(11),7,9,14,18(22),19-heptaene-3-carboxylic acid (1-cyano-cyclopropyl)-amide], the ring closure, yield after HPLC [1] is reported as 20% and the IC50 (Cathepsin L) is reported as 0.0885 µM.
Compound `COc1ccc2c(c1)CC/C=C/COc1ccc(cc1Cl)C[C@@H](C(=O)NC1(C#N)CC1)NC2=O` [Example 18, (E)-(S)-19-Chloro-9-methoxy-5-oxo-17-oxa-4-aza-tricyclo[16.2.2.0*6,11*]docosa-1(21),6,8,10,14,18(22),19-heptaene-3-carboxylic acid (1-cyano-cyclopropyl)-amide] has a ring closure, isolated yield ([2]; Grubbs II) of 48% and an IC50 (Cathepsin L) of 0.0547 µM.
With `Cc1ccc2c(n1)SC/C=C/COc1ccc(cc1Cl)C[C@@H](C(=O)NC1(C#N)CC1)NC2=O` [Example 19, (E)-(S)-19-Chloro-9-methyl-5-oxo-17-oxa-12-thia-4,10-diaza-tricyclo[16.2.2.0*6,11*]docosa-1(21),6,8,10,14,18(22),19-heptaene-3-carboxylic acid (1-cyano-cyclopropyl)-amide] the ring closure, isolated yield ([2]; from C=CCOc1ccc(C[C@H](NC(=O)c2ccc(C)nc2SCC=C)C(=O)NC2(C#N)CC2)cc1Cl, Grubbs II (0.3 eq)/Ti(OiPr)4 (0.6 eq), 1.15 mM) was 6% and the IC50 (Cathepsin L) was 0.026 µM.
